Tested on: SEM cells
Test: cell viability relative to DMSO control; higher = less cytotoxic
Settings: 48 h
Procedure, shortened: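 Before seeding, each leukemia line was adapted for at least four passages in each medium. NOMO1 or SEM cells (500 cells/well) and P12-Ichikawa cells (1000 cells/well) went into 1536-well plates at 5 μl, then received library compounds in DMSO by pin dosing across 11 threefold concentrations, 47 μM to 0.79 nM. Readout was CellTiter-Glo One luminescence after 48 h at 37°C, and viability is given as a per-plate percentage of DMSO wells, with cell-free wells as background.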

[1] = HPLM + 10% dialyzed FBS, 0.000781 µM
[2] = HPLM + 10% dialyzed FBS, 0.00234 µM
[3] = HPLM + 10% dialyzed FBS, 0.00702 µM
[4] = HPLM + 10% dialyzed FBS, 0.0211 µM
[5] = HPLM + 10% dialyzed FBS, 0.0632 µM
[6] = HPLM + 10% dialyzed FBS, 0.19 µM
[7] = HPLM + 10% dialyzed FBS, 0.569 µM
[8] = HPLM + 10% dialyzed FBS, 1.71 µM
[9] = HPLM + 10% dialyzed FBS, 5.12 µM
[10] = HPLM + 10% dialyzed FBS, 15.4 µM
[11] = HPLM + 10% dialyzed FBS, 46.1 µM
[12] = RPMI 5 mM glucose + 10% FBS, 0.000781 µM
[13] = RPMI 5 mM glucose + 10% FBS, 0.00234 µM
[14] = RPMI 5 mM glucose + 10% FBS, 0.00702 µM
[15] = RPMI 5 mM glucose + 10% FBS, 0.0211 µM
[16] = RPMI 5 mM glucose + 10% FBS, 0.0632 µM
[17] = RPMI 5 mM glucose + 10% FBS, 0.19 µM
[18] = RPMI 5 mM glucose + 10% FBS, 0.569 µM
[19] = RPMI 5 mM glucose + 10% FBS, 1.71 µM
[20] = RPMI 5 mM glucose + 10% FBS, 5.12 µM
[21] = RPMI 5 mM glucose + 10% FBS, 15.4 µM
[22] = RPMI 5 mM glucose + 10% FBS, 46.1 µM
[23] = RPMI 5 mM glucose + 10% dialyzed FBS, 0.000781 µM
[24] = RPMI 5 mM glucose + 10% dialyzed FBS, 0.00234 µM
[25] = RPMI 5 mM glucose + 10% dialyzed FBS, 0.00702 µM
[26] = RPMI 5 mM glucose + 10% dialyzed FBS, 0.0211 µM
[27] = RPMI 5 mM glucose + 10% dialyzed FBS, 0.0632 µM
[28] = RPMI 5 mM glucose + 10% dialyzed FBS, 0.19 µM
[29] = RPMI 5 mM glucose + 10% dialyzed FBS, 0.569 µM
[30] = RPMI 5 mM glucose + 10% dialyzed FBS, 1.71 µM
[31] = RPMI 5 mM glucose + 10% dialyzed FBS, 5.12 µM
[32] = RPMI 5 mM glucose + 10% dialyzed FBS, 15.4 µM
[33] = RPMI 5 mM glucose + 10% dialyzed FBS, 46.1 µM

Row | SMILES | cell viability [1] [%] | cell viability [2] [%] | cell viability [3] [%] | cell viability [4] [%] | cell viability [5] [%] | cell viability [6] [%] | cell viability [7] [%] | cell viability [8] [%] | cell viability [9] [%] | cell viability [10] [%] | cell viability [11] [%] | cell viability [12] [%] | cell viability [13] [%] | cell viability [14] [%] | cell viability [15] [%] | cell viability [16] [%] | cell viability [17] [%] | cell viability [18] [%] | cell viability [19] [%] | cell viability [20] [%] | cell viability [21] [%] | cell viability [22] [%] | cell viability [23] [%] | cell viability [24] [%] | cell viability [25] [%] | cell viability [26] [%] | cell viability [27] [%] | cell viability [28] [%] | cell viability [29] [%] | cell viability [30] [%] | cell viability [31] [%] | cell viability [32] [%] | cell viability [33] [%]
1 | CCCCN1CCC(CNC(=O)c2c3n(c4ccccc24)CCCO3)CC1 | 81.3 | 85.3 | 92.1 | 90.9 | 94.5 | 57.7 | 117 | 107 | 108 | 89.7 | 68.4 | 84.9 | 102 | 112 | 91.3 | 117 | 75.3 | 105 | 118 | 113 | 93.5 | 80.6 | 105 | 101 | 110 | 94.4 | 111 | 67.5 | 103 | 103 | 115 | 79 | 79.8
2 | C[C@@H]1CC[C@@]2(CC[C@]3(C)\C(=C/C[C@@H]4[C@@]5(C)C[C@@H](O)[C@H](O)[C@@](C)(CO)[C@@H]5CC[C@@]34C)[C@@H]2[C@H]1C)C(O)=O | 65.5 | 75.1 | 80.4 | 86.6 | 76.5 | 90.6 | 99.1 | 91.9 | 96.5 | 110 | 115 | 114 | 110 | 107 | 120 | 115 | 106 | 128 | 127 | 110 | 120 | 7.07 | 87.9 | 93.8 | 105 | 96 | 103 | 76.4 | 66.6 | 46.1 | 229 | 158 | 127
3 | CCCC[S+](=N)([O-])CCC(N)C(=O)O (stereo unspecified) | 87.1 | 78.5 | 102 | 107 | 124 | 108 | 132 | 102 | 109 | 97.5 | 41.6 | 114 | 109 | 136 | 131 | 113 | 136 | 128 | 104 | 125 | 103 | 84.6 | 120 | 108 | 131 | 122 | 137 | 140 | 128 | 146 | 157 | 111 | 120
4 | COc1cc(N2CCC(N3CCN(C)CC3)CC2)ccc1Nc1ncc(Cl)c(Nc2ccccc2[S+](=O)([O-])C(C)C)n1 | 50.9 | 55.6 | 75.8 | 89.1 | 127 | 84.1 | 89.4 | 19.3 | 22 | 17.5 | 13.6 | 48.1 | 57.5 | 93.2 | 105 | 117 | 84.1 | 72.7 | 16.1 | 12.9 | 8.26 | 4.14 | 58.8 | 63.1 | 86.6 | 117 | 119 | 86.2 | 90.1 | 17.8 | 14.9 | 15 | 11.9
5 | COCC(=O)NC/C=C/c1ccc2ncnc(Nc3ccc(Oc4ccc(C)nc4)c(C)c3)c2c1 | 87.2 | 87.7 | 87.1 | 96.4 | 92.4 | 92.3 | 108 | 90.3 | 82.2 | 89.1 | 66.5 | 102 | 105 | 124 | 95.2 | 105 | 98.8 | 103 | 97.8 | 93 | 99.9 | 34.6 | 78.8 | 82.9 | 93.6 | 95.6 | 101 | 86.8 | 94.2 | 91 | 71.6 | 88 | 49
6 | CC1(C)CCC(C)(C)c2cc(NC(=O)c3ccc(C(=O)O)cc3)ccc21 | 88.1 | 107 | 98.5 | 107 | 115 | 101 | 124 | 110 | 104 | 120 | 97.4 | 100 | 93.3 | 111 | 115 | 119 | 111 | 113 | 111 | 116 | 123 | 105 | 90.9 | 92.4 | 84.7 | 95.6 | 91.9 | 93 | 103 | 94.6 | 105 | 101 | 87.7
7 | Nc1nccc(-c2ccc3noc(-c4ccc(Cl)cc4)c3c2)n1 | – | – | – | – | – | – | – | – | – | – | – | 98.5 | 103 | 99.3 | 102 | 93.9 | 116 | 112 | 104 | 89.1 | 88.9 | 92.7 | 118 | 119 | 119 | 119 | 104 | 115 | 126 | 119 | 108 | 114 | 108
8 | Clc1ccc(C(c2ccc(Cl)cc2)[n+]2ccn(CC(OCc3ccc(Cl)cc3Cl)c3ccc(Cl)cc3Cl)c2)cc1 (stereo unspecified) | 108 | 121 | 107 | 105 | 117 | 112 | 108 | 117 | 117 | 61 | 5.22 | 109 | 111 | 117 | 120 | 132 | 127 | 124 | 111 | 106 | 37.7 | 1.63 | 112 | 117 | 118 | 109 | 108 | 123 | 124 | 115 | 125 | 83.3 | 3.06
9 | CO[C@H]1C[C@@H]2CC[C@@H](C)[C@@](O)(O2)C(=O)C(=O)N2CCCC[C@H]2C(=O)O[C@H]([C@@H](C)C[C@@H]2CC[C@@H](O)[C@H](OC)C2)CC(=O)[C@H](C)/C=C(\C)[C@@H](O)[C@@H](OC)C(=O)[C@H](C)C[C@H](C)/C=C/C=C/C=C/1C | 95.4 | 95.3 | 88 | 83.2 | 86.9 | 81.7 | 81.9 | 74.2 | 80.1 | 79.5 | 61.3 | 98.6 | 84.3 | 89.4 | 94.9 | 80.6 | 77.3 | 75.7 | 80.7 | 68 | 70.6 | 60.6 | 96.9 | 87.2 | 102 | 85.7 | 89.8 | 81.3 | 85.5 | 84.4 | 81.6 | 81.7 | 52.6
